According to DBAASP:
In brackets after ≈: the same amount, converted by molar mass. Values belong to the compound of their own block, whether it stands above or below them.

Assays:
Experiment in all cases: ≥ marks a high value that may be exact or a test limit, other limits are often not marked, values filed in µg/mL are converted to µM
[1] = tested on: Escherichia coli CCT 1371
[2] = tested on: Pseudomonas aeruginosa ATCC 27853
[3] = tested on: Staphylococcus aureus ATCC 6535
[4] = tested on: Staphylococcus saprophyticus
Bacillus subtilis DELTA = tested on: Bacillus subtilis DELTA
Candida parapsilosis = tested on: Candida parapsilosis
[5] = tested on: Escherichia coli DH5alpha
[6] = tested on: Pseudomonas aeruginosa PAO1
[7] = tested on: Zymomonas mobilis ATCC 10988
[8] = tested on: Candida albicans ATCC 10231
[9] = tested on: Candida glabrata ATCC 2001
Candida krusei ATCC 6258 = tested on: Candida krusei ATCC 6258
[10] = tested on: Candida parapsilosis ATCC 90018
[11] = tested on: Candida tropicalis ATCC 750
[12] = tested on: Escherichia coli ATCC 25922
[13] = tested on: Staphylococcus aureus ATCC 29213
Aureobasidium pullulans = tested on: Aureobasidium pullulans
Bacillus megaterium = tested on: Bacillus megaterium
[14] = tested on: Bacillus subtilis ATCC 23857
[15] = tested on: Corynebacterium glutamicum ATCC 13032
Micrococcus luteus = tested on: Micrococcus luteus
[16] = tested on: Staphylococcus aureus ATCC 9144
[17] = tested on: Bacillus subtilis MTCC 2763
[18] = tested on: Escherichia coli MTCC 723
[19] = tested on: Pseudomonas aeruginosa MTCC 2295
[20] = tested on: Staphylococcus aureus ATCC BAA-1720
[21] = tested on: Staphylococcus aureus MTCC 3160
[22] = tested on: Staphylococcus epidermidis ATCC 51625

SMILES: CC[C@H](C)[C@H](NC(=O)[C@H](CO)NC(=O)[C@@H](NC(=O)[C@H](CCCCN)NC(=O)[C@H](Cc1ccccc1)NC(=O)[C@@H]1CCCN1C(=O)[C@@H](N)CCC(=O)O)[C@@H](C)CC)C(=O)N[C@@H](Cc1cnc[nH]1)C(=O)N[C@@H](CC(C)C)C(N)=O [EPFKISIHL]
MIC [1]: 13.8 µM (≈ 15 µg/mL)
MIC [2]: 27.7 µM (≈ 30 µg/mL)
MIC [3]: 27.7 µM (≈ 30 µg/mL)
MIC [4]: 27.7 µM (≈ 30 µg/mL)

SMILES: CC[C@H](C)[C@H](NC(=O)CN)C(=O)N[C@@H](CC(C)C)C(=O)N[C@@H](CC(=O)O)C(=O)N[C@H](C(=O)N[C@@H](CCCCN)C(=O)N[C@@H](CC(N)=O)C(=O)N[C@@H](CCCCN)C(=O)N[C@H](C(=O)N[C@@H](CO)C(=O)N[C@@H](CC(N)=O)C(=O)N[C@@H](CC(C)C)C(=O)N[C@@H](Cc1ccccc1)C(=O)N[C@@H](CCCCN)C(=O)N[C@@H](CCCCN)C(=O)N[C@H](C(=O)N[C@@H](CCCCN)C(=O)NCC(=O)N[C@@H](CCC(=O)O)C(=O)N[C@@H](CCCCN)C(N)=O)[C@@H](C)CC)C(C)C)[C@@H](C)CC [GILDIKNKVSNLFKKIKGEK]
MIC [8]: 250 µM (≈ 568 µg/mL)
MIC [9]: ≥ 500 µM
MIC (Candida krusei ATCC 6258): ≥ 125 µM
MIC [10]: ≥ 500 µM
MIC [11]: ≥ 500 µM
MIC [12]: > 130 µM
MIC [2]: > 130 µM
MIC [13]: > 130 µM

Next, values leading:

MIC (Bacillus subtilis DELTA): 11.9 µM (≈ 20.5 µg/mL)
MIC (Candida parapsilosis): ≥ 59.7 µM
MIC [5]: ≥ 59.7 µM
MIC [6]: 59.7 µM (≈ 102 µg/mL)
MIC [7]: ≥ 59.7 µM
SMILES: CC[C@H](C)[C@H](NC(=O)[C@H](CC(C)C)NC(=O)[C@H](CCC(N)=O)NC(=O)[C@@H](NC(=O)[C@@H](NC(=O)[C@H](CCCN=C(N)N)NC(=O)[C@H](CCCCN)NC(=O)[C@H](Cc1ccccc1)NC(C)=O)[C@@H](C)CC)C(C)C)C(=O)N[C@@H](CCCCN)C(=O)N[C@@H](CC(=O)O)C(=O)N[C@@H](Cc1ccccc1)C(=O)N[C@@H](CC(C)C)C(=O)N[C@@H](CCCN=C(N)N)C(N)=O [FKRIVQLIKDFLR]

MIC (Aureobasidium pullulans): ≥ 52.7 µM
MIC (Bacillus megaterium): 3.29 µM (≈ 3.9 µg/mL)
MIC [14]: ≥ 105 µM
MIC [8]: 52.7 µM (≈ 62.4 µg/mL)
MIC [15]: 3.29 µM (≈ 3.9 µg/mL)
MIC [12]: > 211 µM
MIC (Micrococcus luteus): ≥ 105 µM
MIC [2]: > 211 µM
MIC [16]: ≥ 211 µM
SMILES: C[C@H](NC(=O)[C@H](CCCCN)NC(=O)[C@H](Cc1c[nH]c2ccccc12)NC(=O)[C@H](Cc1c[nH]c2ccccc12)NC(=O)CNC(=O)[C@@H]1CCCN1C(=O)[C@H](CCCCN)NC(=O)[C@H](CCCCN)NC(=O)CN)C(=O)N[C@@H](CCCCN)C(N)=O [GKKPGWWKAK]

MIC [17]: ≥ 81.5 µM
MIC [18]: ≥ 87.3 µM
MIC [19]: ≥ 116 µM
MIC [20]: 29.1 µM (≈ 25 µg/mL)
MIC [21]: 29.1 µM (≈ 25 µg/mL)
MIC [22]: 23.3 µM (≈ 20 µg/mL)
SMILES: NC(=O)[C@H](CCCN=C(N)N)NC(=O)[C@H](Cc1c[nH]c2ccccc12)NC(=O)[C@H](Cc1c[nH]c2ccccc12)NC(=O)[C@H](CCCN=C(N)N)NC(=O)[C@@H](N)CCCN=C(N)N [RRWWR]
